Laboratory results taken from PubChem BioAssay (NCI).
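All cell lines were grown in 96-well plates and treated with compound for 48 hours. GI50 is the concentration that inhibits growth by half. TGI is the concentration that stops growth completely.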

Tests used:
Experiment in all cases: inhibition of tumour cell growth, NCI panel, 48 h
[1] = tested on: NCI/ADR-RES ovarian
[2] = tested on: NCI-H460 lung
[3] = tested on: SK-MEL-28 melanoma
[4] = tested on: UACC-257 melanoma
[5] = tested on: MCF7 breast
[6] = tested on: SF-268 CNS
[7] = tested on: OVCAR-8 ovarian
[8] = tested on: K-562 leukemia
[9] = tested on: HT29 colon
[10] = tested on: SK-MEL-5 melanoma
[11] = tested on: TK-10 renal
[12] = tested on: HCT-15 colon
[13] = tested on: HL-60(TB) leukemia
[14] = tested on: UACC-62 melanoma
[15] = tested on: A498 renal
[16] = tested on: SNB-19 CNS
[17] = tested on: SF-295 CNS
[18] = tested on: SR leukemia
[19] = tested on: OVCAR-3 ovarian
[20] = tested on: A549 NSCLC
[21] = tested on: M14 melanoma
[22] = tested on: SK-MEL-2 melanoma
[23] = tested on: PC-3 prostate
[24] = tested on: DU-145 prostate
[25] = tested on: BT-549 breast
[26] = tested on: HCT-116 colon
[27] = tested on: HCC-2998 colon
[28] = tested on: SW-620 colon
[29] = tested on: ACHN renal
[30] = tested on: NCI-H226 lung
[31] = tested on: T-47D breast
[32] = tested on: SNB-75 CNS
[33] = tested on: NCI-H23 lung
[34] = tested on: UO-31 renal
[35] = tested on: MALME-3M melanoma
[36] = tested on: KM12 colon
[37] = tested on: SN12C renal
[38] = tested on: MDA-MB-435
[39] = tested on: NCI-H522 lung
[40] = tested on: COLO 205 colon
[41] = tested on: HS 578T breast
[42] = tested on: LOX IMVI melanoma
[43] = tested on: IGROV1 ovarian
[44] = tested on: RPMI-8226 leukemia
[45] = tested on: SF-539 CNS
[46] = tested on: MOLT-4 leukemia
[47] = tested on: OVCAR-4 ovarian
[48] = tested on: HOP-62 NSCLC
[49] = tested on: MDA-MB-231 breast
[50] = tested on: CAKI-1 renal
[51] = tested on: CCRF-CEM leukemia
[52] = tested on: SK-OV-3 ovarian
[53] = tested on: OVCAR-5 ovarian
[54] = tested on: 786-0 renal
[55] = tested on: HOP-92 NSCLC

Structure (SMILES): O=C(NCCCN1CCC(N2CCCCC2)CC1)C1=Cc2cc(Br)ccc2OC1
- GI50 [1]: 19.1 µM
- TGI [1]: 52.2 µM
- GI50 [2]: 8.43 µM
- TGI [2]: 23.6 µM
- GI50 [3]: 1.83 µM
- TGI [3]: 3.54 µM
- GI50 [4]: 1.9 µM
- TGI [4]: 3.89 µM
- GI50 [5]: 4.45 µM
- TGI [5]: 17.1 µM
- GI50 [6]: 3.51 µM
- TGI [6]: 13 µM
- GI50 [7]: 4.82 µM
- TGI [7]: 26.9 µM
- GI50 [8]: 1.98 µM
- TGI [8]: 4.63 µM
- GI50 [9]: 3.21 µM
- TGI [9]: 12.5 µM
- GI50 [10]: 1.89 µM
- TGI [10]: 3.61 µM
- GI50 [11]: 14.3 µM
- TGI [11]: 27.7 µM
- GI50 [12]: 3.47 µM
- TGI [12]: 17.1 µM
- GI50 [13]: 4.94 µM
- TGI [13]: 19.3 µM
- GI50 [14]: 1.83 µM
- TGI [14]: 3.49 µM
- GI50 [15]: 3.88 µM
- TGI [15]: 18.7 µM
- GI50 [16]: 14.2 µM
- TGI [16]: 31.3 µM
- GI50 [17]: 8.58 µM
- TGI [17]: 24.8 µM
- GI50 [18]: 2.5 µM
- TGI [18]: 6.15 µM
- GI50 [19]: 12.3 µM
- TGI [19]: 26.8 µM
- GI50 [20]: 5.66 µM
- TGI [20]: 20.1 µM
- GI50 [21]: 2.22 µM
- TGI [21]: 4.71 µM
- GI50 [22]: 8.14 µM
- TGI [22]: 22.1 µM
- GI50 [23]: 11.7 µM
- TGI [23]: 26.8 µM
- GI50 [24]: 15.5 µM
- TGI [24]: 30.4 µM
- GI50 [25]: 13.9 µM
- TGI [25]: 33 µM
- GI50 [26]: 5.29 µM
- TGI [26]: 21.8 µM
- GI50 [27]: 13.5 µM
- TGI [27]: 27.2 µM
- GI50 [28]: 5.16 µM
- TGI [28]: 19 µM
- GI50 [29]: 10.2 µM
- TGI [29]: 27 µM
- GI50 [30]: 16.9 µM
- TGI [30]: 34.5 µM
- GI50 [31]: 2.04 µM
- TGI [31]: 4.98 µM
- GI50 [32]: 10.9 µM
- TGI [32]: 23.3 µM
- GI50 [33]: 16.9 µM
- TGI [33]: 36.2 µM
- GI50 [34]: 6.71 µM
- TGI [34]: 20.4 µM
- GI50 [35]: 2.11 µM
- TGI [35]: 3.89 µM
- GI50 [36]: 13.7 µM
- TGI [36]: 27.8 µM
- GI50 [37]: 10.4 µM
- TGI [37]: 24.1 µM
- GI50 [38]: 1.69 µM
- TGI [38]: 3.55 µM
- GI50 [39]: 2.32 µM
- TGI [39]: 6.12 µM
- GI50 [40]: 2.16 µM
- TGI [40]: 4.29 µM
- GI50 [41]: 12.2 µM
- TGI [41]: 33.4 µM
- GI50 [42]: 2.59 µM
- TGI [42]: 5.73 µM
- GI50 [43]: 15.9 µM
- TGI [43]: 39.4 µM
- GI50 [44]: 4.54 µM
- TGI [44]: 22.4 µM
- GI50 [45]: 2.09 µM
- TGI [45]: 5.04 µM
- GI50 [46]: 7.41 µM
- TGI [46]: 26.3 µM
- GI50 [47]: 10 µM
- TGI [47]: 32 µM
- GI50 [48]: 13.8 µM
- TGI [48]: 27.2 µM
- GI50 [49]: 3.62 µM
- TGI [49]: 13.8 µM
- GI50 [50]: 2.46 µM
- TGI [50]: 6.09 µM
- GI50 [51]: 4.24 µM
- TGI [51]: 20.2 µM
- GI50 [52]: 16.2 µM
- TGI [52]: 30.9 µM
- GI50 [53]: 19.9 µM
- TGI [53]: 70.2 µM
- GI50 [54]: 11.2 µM
- TGI [54]: 25.8 µM
- GI50 [55]: 3.68 µM
- TGI [55]: 19.8 µM
